Results: patent US20170038387A1, “METHODS FOR TREATING CHRONIC LYMPHOCYTIC LEUKEMIA AND THE USE OF BIOMARKERS AS A PREDICTOR OF CLINICAL SENSITIVITY TO IMMUNOMODULATORY THERAPIES” (Celgene Corporation, priority 2015, published 2017)

Test system: primary CLL samples
Assay: TMT-tagging and mass-spectrometry profiling of relative protein abundance after compound exposure
Assay type: cell-based, human
Excerpt: Data import: Relative abundance (RA) data was imported into the R statistical programming environment v.3.1.2. Proteins with less than one spectral count in any of the three MS runs for each case scenario were filtered out and relative abundance was scale normalized to the same median by using normalizeBetweenArrays( ) function implemented in the limma package for Bioconductor (see Yang et al., Nucleic Acids Research, 30(4), e15 (2002)).
Comparative analysis: RA scores were log 2-transformed to perform direct comparison of compounds exposure versus DMSO control and a paired moderated t-test (see Smyth, Statistical Applications in Genetics and Molecular Biology, 3(1), article 3 (2004)) was performed by using lmfit( ) and eBayes( ) functions form limma package to test differential relative abundance between experimental conditions. For differential analysis across cases, the log-2 fold changes of replicates for two of the case scenarios were considered.
Linear regression analysis: Linear regression was modeled by using lm( ) function from the stats package. This function provided the correlation coefficients as well as the linear fitted model. Data were assessed for outliers detection within the linear model via the Studentized residuals method (implemented in outlierTest( ) function from car package) and deemed significant if their q-values were under a threshold of 0.05 (5%).
The proteins subjected to the analysis were those with more than one spectral count matched in three MS runs representing each case scenario. A total of 6114, 6070, 5982 and 5382 proteins were retained for each case scenario. Differential expression analysis was applied to the high and consistent coverage of 4594 proteins quantified across all case scenarios. FIGS. 2A-2D show distribution of normalized relative abundances for each replicate of the four case scenarios (Cases B1-B4). The standard deviation of each replicate is represented as a stair-plot line at the bottom of the boxplot. FIGS. 3A-3D show heatmaps representing correlations of log 2 fold-changes of protein levels post compound treatment as compared with DMSO across conditions for all case scenarios. Low correlation of log 2 fold-changes at 6 hours may be due to the alteration of a small subset of proteins at an early time point without strong general effects across the proteome. Stronger correlations at 24 hours can be linked to a higher proportion of proteins perturbed reflecting downstream changes upon compound exposure.

[1] = Cmp A vs. len, Case B1, 10 μM, 24 hours

Cc1nc2cccc(N)c2c(=O)n1C1CCC(=O)NC1=O (stereo not drawn) [Compound A, 3-(5-amino-2-methyl-4-oxo-4H-quinazolin-3-yl)-piperidine-2,6-dione]
decreased: level of WIZ (widely-interspaced zinc-finger) upon exposure (Case B1)
−1.175: logFC GZMB (P10144) [1]
0.5326: logFC BCL2L1 (Q07817) [1]
increased abundance levels: abundance levels of GBP2 and GBP4 upon exposure (Case B3)
−0.6625: logFC IGHM (P01871-2) [1]
−1.709: logFC IKZF1 (Q13422) [1]
down-regulated: protein abundance levels of SELL, SNX20 and KLF13 upon exposure (10 μM, 24 hours)
exclusively decreased: IRF5 protein level (Case B4 (not quantified in B2))
Higher: RA upon Cmp A vs. len treatment, BCL2L1 (Q07817) (Case B1, 10 μM, 24 hours) | RA upon Cmp A vs. len treatment, MARCKS (P29966) (Case B1, 10 μM, 24 hours) | RA upon Cmp A vs. len treatment, NDE1 (Q9NXR1) (Case B1, 10 μM, 24 hours) | RA upon Cmp A vs. len treatment, PTK2B (Q14289-2) (Case B1, 10 μM, 24 hours) | RA upon Cmp A vs. len treatment, SAMSN1 (Q9NSI8) (Case B1, 10 μM, 24 hours) | RA upon Cmp A vs. len treatment, SLAMF1 (Q13291) (Case B1, 10 μM, 24 hours) | RA upon Cmp A vs. len treatment, SOD2 (P04179) (Case B1, 10 μM, 24 hours) | RA upon Cmp A vs. len treatment, TRAF1 (Q13077) (Case B1, 10 μM, 24 hours) | RA upon Cmp A vs. len treatment, ZBTB10 (Q96DT7) (Case B1, 10 μM, 24 hours) | RA upon Cmp A vs. len Treatment, CD40 (P25942) (Case B3, 10 μM, 24 hours) | RA upon Cmp A vs. len Treatment, CR2 (P20023-3) (Case B3, 10 μM, 24 hours) | RA upon Cmp A vs. len Treatment, CTSS (P25774) (Case B3, 10 μM, 24 hours) | RA upon Cmp A vs. len Treatment, GBP1 (P32455) (Case B3, 10 μM, 24 hours) | RA upon Cmp A vs. len Treatment, ISG20 (Q96AZ6) (Case B3, 10 μM, 24 hours) | RA upon Cmp A vs. len Treatment, SASH1 (O94885) (Case B3, 10 μM, 24 hours) | RA upon Cmp A vs. len Treatment, SEMA7A (O75326) (Case B3, 10 μM, 24 hours) | RA upon Cmp A vs. len treatment, PTK2B (Q14289-2) (Case B3, 10 μM, 24 hours) | RA upon Cmp A vs. len treatment, SAMSN1 (Q9NSI8) (Case B3, 10 μM, 24 hours) | RA upon Cmp A vs. len treatment, SLAMF1 (Q13291) (Case B3, 10 μM, 24 hours) | RA upon Cmp A vs. len treatment, SOD2 (P04179) (Case B3, 10 μM, 24 hours) | RA upon Cmp A vs. len treatment, TRAF1 (Q13077) (Case B3, 10 μM, 24 hours)
−2.169: logFC IKZF1 (Q13422-2) [1]
Lower: RA upon Cmp A vs. len Treatment, IKZF1 (Q13422) (Case B1, 10 μM, 24 hours) | RA upon Cmp A vs. len treatment, GZMB (P10144) (Case B1, 10 μM, 24 hours) | RA upon Cmp A vs. len treatment, IGHM (P01871-2) (Case B1, 10 μM, 24 hours) | RA upon Cmp A vs. len treatment, IKZF1 (Q13422-2) (Case B1, 10 μM, 24 hours) | RA upon Cmp A vs. len treatment, IRF8 (Q02556) (Case B1, 10 μM, 24 hours) | RA upon Cmp A vs. len treatment, KLF13 (Q9Y2Y9) (Case B1, 10 μM, 24 hours) | RA upon Cmp A vs. len treatment, LGALS9 (O00182) (Case B1, 10 μM, 24 hours) | RA upon Cmp A vs. len treatment, NFKBIE (O00221) (Case B1, 10 μM, 24 hours) | RA upon Cmp A vs. len treatment, SELL (P14151-2) (Case B1, 10 μM, 24 hours) | RA upon Cmp A vs. len treatment, SNX20 (Q7Z614) (Case B1, 10 μM, 24 hours) | RA upon Cmp A vs. len treatment, TCF7 (P36402-3) (Case B1, 10 μM, 24 hours) | RA upon Cmp A vs. len treatment, WIZ (M0QXA7) (Case B1, 10 μM, 24 hours) | RA upon Cmp A vs. len Treatment, IKZF1 (Q13422) (Case B2, 10 μM, 24 hours) | RA upon Cmp A vs. len Treatment, IKZF3 (Q9UKT9) (Case B2, 10 μM, 24 hours) | RA upon Cmp A vs. len Treatment, IKZF1 (Q13422) (Case B3, 10 μM, 24 hours) | RA upon Cmp A vs. len Treatment, IKZF3 (Q9UKT9) (Case B3, 10 μM, 24 hours) | RA upon Cmp A vs. len treatment, SELL (P14151-2) (Case B3, 10 μM, 24 hours) | RA upon Cmp A vs. len Treatment, PDE6D (O43924) (Case B4, 10 μM, 24 hours)
